We go through 20 compounds from PubChem BioAssay AID248 (DTP/NCI, 2004).

Where “and” joins values, the source holds several entries; their conditions need not be identical. Identical values can stand only once. Toxic doses and inconclusive results are not listed.

The subject of the test is L1210 leukemia ip in BDF1 mice, survival T/C. In words: NCI In Vivo Anticancer Drug Screen. Data for tumor model L1210 Leukemia (intraperitoneal) in B6D2F1 (BDF1) mice. Particulars: endpoint: mean survival time, higher = longer survival. In outline: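 In this screen, tumor-bearing mice given compound are compared to those given vehicle, and their survival values are reported as a treated-to-control quotient.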

Where [1] appears, read: dose: 50.0 mg/kg/injection, schedule: Q01DX001 (ip), vehicle: saline.
Setting [2] is: dose: 100.0 mg/kg/injection, schedule: Q01DX001 (ip), vehicle: saline.
Where [3] appears, read: dose: 200.0 mg/kg/injection, schedule: Q01DX001 (ip), vehicle: saline.
The mark [4] stands for this setting: dose: 400.0 mg/kg/injection, schedule: Q01DX001 (ip), vehicle: saline.
Setting [5] is: dose: 100.0 mg/kg/injection, schedule: Q01DX009 (ip), vehicle: Klucel (hydroxypropylcellulose) (HPC).
The mark [6] stands for this setting: dose: 100.0 mg/kg/injection, schedule: Q04DX003 (ip), vehicle: Klucel (hydroxypropylcellulose) (HPC).
The mark [7] stands for this setting: dose: 200.0 mg/kg/injection, schedule: Q01DX009 (ip), vehicle: Klucel (hydroxypropylcellulose) (HPC).
Setting [8] is: dose: 200.0 mg/kg/injection, schedule: Q04DX003 (ip), vehicle: Klucel (hydroxypropylcellulose) (HPC).
The mark [9] stands for this setting: dose: 400.0 mg/kg/injection, schedule: Q01DX009 (ip), vehicle: Klucel (hydroxypropylcellulose) (HPC).
Where [10] appears, read: dose: 400.0 mg/kg/injection, schedule: Q04DX003 (ip), vehicle: Klucel (hydroxypropylcellulose) (HPC).
[11] abbreviates: dose: 100.0 mg/kg/injection, schedule: Q04DX002 (ip), vehicle: Klucel (hydroxypropylcellulose) (HPC).
The mark [12] stands for this setting: dose: 200.0 mg/kg/injection, schedule: Q04DX002 (ip), vehicle: Klucel (hydroxypropylcellulose) (HPC).
The mark [13] stands for this setting: dose: 400.0 mg/kg/injection, schedule: Q04DX002 (ip), vehicle: Klucel (hydroxypropylcellulose) (HPC).

`O=C(CCCC(=O)N/N=C/c1cc(Cl)ccc1[N+](=O)[O-])N/N=C\c1cc(Cl)ccc1[N+](=O)[O-]`: the T/C is, setting by setting: under setting [1], 98 % of control; under setting [2], 90 % of control; under setting [3], 95 % of control; under setting [4], 98 % of control.

As for `NS(=O)(=O)c1cc(Br)c(N=Nc2ccc(O)c3ncccc23)c(Br)c1`, the T/C runs as follows: under setting [2], 100 % of control; under setting [3], 100 % of control; under setting [4], 108 % of control.

As to `CCOc1ccc(Br)cc1/C=C1\N=C(c2ccccc2)OC1=O`, the T/C reads like this: under setting [5], 93 % of control and 95 % of control; under setting [6], 97 % of control and 98 % of control; under setting [7], 93 % of control and 98 % of control; under setting [8], 98 % of control and 89 % of control; under setting [9], 96 % of control and 86 % of control; under setting [10], 93 % of control and 98 % of control.

Take `CCCCOC(=O)C(O)C(C)(Cl)c1ccccc1` (stereo not drawn): the T/C under setting [11] is 106 % of control, the T/C under setting [12] was 103 % of control and the T/C under setting [13] is 106 % of control.

Regarding `CCCCCC(=O)N1CC(C)OC(C)C1` (stereo not drawn), the T/C under setting [11] is 94 % of control, the T/C under setting [12] was 97 % of control and the T/C under setting [13] is 87 % of control.

As for `COC(=O)CCCCCNC(=O)NCCCCCC(=O)OC`, the T/C is 90 % of control under setting [5]; 95 % of control under setting [6]; 87 % of control under setting [7]; 93 % of control under setting [8]; 90 % of control under setting [9]; 93 % of control under setting [10].

Take `CCCOCCOCCOC(C)Oc1ccc(C(=O)OC)cc1` (stereo not drawn): the T/C by setting is: (dose: 100.0 mg/kg/injection, schedule: Q04DX002 (ip), vehicle: saline) 101 % of control; (dose: 200.0 mg/kg/injection, schedule: Q04DX002 (ip), vehicle: saline) 101 % of control; (dose: 400.0 mg/kg/injection, schedule: Q04DX002 (ip), vehicle: saline) 99 % of control.

Regarding `O=C(O)c1cccc(-n2cnc3c(=O)[nH]cnc32)c1`, the T/C under setting [1] is 108 % of control, the T/C under setting [2] was 93 % of control, the T/C under setting [3] was 96 % of control and the T/C under setting [4] was 104 % of control.

As for `CN=C(N)Nc1ccc(NC(=O)c2ccc(C(=O)Nc3ccc(NC(N)=NC)cc3)cc2)cc1`, the T/C (dose: 0.25 mg/kg/injection, schedule: Q01DX015 (ip), vehicle: methylcellulose (MC)) is 113 % of control; the T/C (dose: 0.25 mg/kg/injection, schedule: Q01DX Z (ip), vehicle: carboxymethylcellulose (CMC)) was 107 % of control; the T/C (dose: 0.5 mg/kg/injection, schedule: Q01DX015 (ip), vehicle: methylcellulose (MC)) was 110 % of control; the T/C (dose: 0.5 mg/kg/injection, schedule: Q01DX Z (ip), vehicle: carboxymethylcellulose (CMC)) was 123 % of control; the T/C (dose: 1.0 mg/kg/injection, schedule: Q01DX Z (ip), vehicle: carboxymethylcellulose (CMC)) was 156 % of control; the T/C (dose: 2.0 mg/kg/injection, schedule: Q01DX015 (ip), vehicle: methylcellulose (MC)) is 236 % of control. For the same compound, the T/C is 231 % of control and 254 % of control (dose: 2.0 mg/kg/injection, schedule: Q01DX Z (ip), vehicle: carboxymethylcellulose (CMC)); 228 % of control (dose: 4.0 mg/kg/injection, schedule: Q01DX015 (ip), vehicle: methylcellulose (MC)); 211 % of control (dose: 4.0 mg/kg/injection, schedule: Q01DX Z (ip), vehicle: carboxymethylcellulose (CMC)); 93 % of control (dose: 16.0 mg/kg/injection, schedule: Q01DX015 (ip), vehicle: methylcellulose (MC)); 100 % of control (dose: 17.0 mg/kg/injection, schedule: Q01DX Z (ip), vehicle: carboxymethylcellulose (CMC)); 163 % of control and 211 % of control (dose: 30.0 mg/kg/injection, schedule: Q01DX001 (ip), vehicle: methylcellulose (MC)). Moreover, the T/C (dose: 62.0 mg/kg/injection, schedule: Q01DX Z (oral), vehicle: carboxymethylcellulose (CMC)) is 98 % of control; the T/C (dose: 125.0 mg/kg/injection, schedule: Q01DX Z (oral), vehicle: carboxymethylcellulose (CMC)) was 101 % of control; the T/C (dose: 250.0 mg/kg/injection, schedule: Q01DX Z (oral), vehicle: carboxymethylcellulose (CMC)) is 105 % of control; the T/C (dose: 500.0 mg/kg/injection, schedule: Q01DX Z (oral), vehicle: carboxymethylcellulose (CMC)) was 105 % of control.

In the case of `O=C(Sc1cccc2ccccc12)c1ccc([N+](=O)[O-])cc1`, the T/C is, setting by setting: under setting [6], 95 % of control; under setting [8], 97 % of control; under setting [10], 95 % of control.

As to `COc1ccc(C(=O)N/N=C/c2ccccc2)cc1`, the T/C under setting [1] was 102 % of control, the T/C under setting [2] was 98 % of control, the T/C under setting [3] was 98 % of control and the T/C under setting [4] was 98 % of control.

Turning to `C[N+](C)(C)CCOc1ccccc1Cc1ccccc1`, the T/C was 96 % of control (dose: 1.56 mg/kg/injection, schedule: Q01DX003 (ip), vehicle: saline); 100 % of control (dose: 3.12 mg/kg/injection, schedule: Q01DX003 (ip), vehicle: saline); 96 % of control and 100 % of control (dose: 3.12 mg/kg/injection, schedule: Q01DX009 (ip), vehicle: saline); 96 % of control (dose: 6.25 mg/kg/injection, schedule: Q01DX003 (ip), vehicle: saline); 106 % of control (dose: 6.25 mg/kg/injection, schedule: Q01DX009 (ip), vehicle: saline); 105 % of control and 89 % of control (dose: 12.5 mg/kg/injection, schedule: Q01DX009 (ip), vehicle: saline). In addition, the T/C (dose: 12.5 mg/kg/injection, schedule: Q04DX003 (ip), vehicle: saline) was 111 % of control.

As for `COc1ccc(-n2c(=O)c(N=Nc3ccc(Br)cc3)c(O)n(-c3ccccc3OC)c2=S)cc1`, the T/C reads like this: (dose: 50.0 mg/kg/injection, schedule: Q01DX001 (ip), vehicle: Klucel (hydroxypropylcellulose) (HPC)) 106 % of control; (dose: 100.0 mg/kg/injection, schedule: Q01DX001 (ip), vehicle: Klucel (hydroxypropylcellulose) (HPC)) 103 % of control; (dose: 200.0 mg/kg/injection, schedule: Q01DX001 (ip), vehicle: Klucel (hydroxypropylcellulose) (HPC)) 103 % of control.

With `N#CCCCCCCN=[N+]=[N-]`, the T/C by setting is: (dose: 37.5 mg/kg/injection, schedule: Q04DX003 (ip), vehicle: saline) 106 % of control; (dose: 75.0 mg/kg/injection, schedule: Q04DX003 (ip), vehicle: saline) 101 % of control; (dose: 150.0 mg/kg/injection, schedule: Q04DX003 (ip), vehicle: saline) 102 % of control.

With `NC(=O)c1cc2ccccc2[n+](Cc2ccc(F)cc2)c1`, the T/C (dose: 75.0 mg/kg/injection, schedule: Q01DX001 (ip), vehicle: saline) is 107 % of control.

With `O=C(CCCc1ccc([N+](=O)[O-])cc1)Nc1ccc(S(=O)(=O)F)cc1`, the T/C is, setting by setting: under setting [2], 101 % of control; under setting [3], 100 % of control; under setting [4], 97 % of control.

As to `O=C(N/N=C\c1ccc(-c2ccccc2)cc1)N/N=C/c1ccc(-c2ccccc2)cc1`, the T/C is, setting by setting: (dose: 100.0 mg/kg/injection, schedule: Q04DX003 (ip), vehicle: carboxymethylcellulose (CMC)) 90 % of control; (dose: 200.0 mg/kg/injection, schedule: Q04DX003 (ip), vehicle: carboxymethylcellulose (CMC)) 87 % of control.

Turning to `CCC(CC)(Cc1ccccc1)C(=O)NC(=O)NO`, the T/C reads like this: (dose: 25.0 mg/kg/injection, schedule: Q01DX Z (ip), vehicle: methylcellulose (MC)) 98 % of control; (dose: 50.0 mg/kg/injection, schedule: Q01DX Z (ip), vehicle: methylcellulose (MC)) 101 % of control; (dose: 100.0 mg/kg/injection, schedule: Q01DX Z (ip), vehicle: methylcellulose (MC)) 98 % of control.

Take `C=CCOCC(O)CO` (stereo not drawn): the T/C is 108 % of control (dose: 100.0 mg/kg/injection, schedule: Q01DX009 (ip), vehicle: saline); 94 % of control (dose: 200.0 mg/kg/injection, schedule: Q01DX009 (ip), vehicle: saline); 103 % of control (dose: 400.0 mg/kg/injection, schedule: Q01DX009 (ip), vehicle: saline).

As to `CC1(C)C(=O)C2CCC1C2` (stereo not drawn), the T/C under setting [11] was 90 % of control, the T/C under setting [12] is 87 % of control and the T/C under setting [13] is 103 % of control.
